Data reported in ChEMBL document CHEMBL1201862, “PubChem BioAssay data set” (2004).
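Each compound was tested at five concentrations against cells in 96-well plates for 48 hours. Here, GI50 denotes the concentration required for 50% inhibition of growth.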 Activity calls are given as the source filed them. No stated cut-off is given here; in the data, active = GI50 up to about 1.1 µM and inactive = higher.

Legend:
Assay in all cases: NCI anticancer screen, dose series, 48 h
RXF 393 = system: RXF 393
MDA-N = system: MDA-N
MOLT-4 = system: MOLT-4
HCT-116 = system: HCT-116
MDA-MB-231 = system: MDA-MB-231
Malme-3M = system: Malme-3M
NCI-H460 = system: NCI-H460
COLO 205 = system: COLO 205
UO-31 = system: UO-31
EKVX = system: EKVX
T47D = system: T47D
SK-MEL-5 = system: SK-MEL-5
OVCAR-4 = system: OVCAR-4
LOX IMVI = system: LOX IMVI
SF-268 = system: SF-268
UACC-257 = system: UACC-257
HCC 2998 = system: HCC 2998
DU-145 = system: DU-145
HOP-92 = system: HOP-92
NCI-H226 = system: NCI-H226

Measured: GI50

CC(=O)n1nc(-c2ccc3ccccc3c2)nc1C
inactive: RXF 393 > 100 µM | MDA-N 70.8 µM | MOLT-4 56.8 µM | HCT-116 67.3 µM | MDA-MB-231 > 100 µM | Malme-3M > 100 µM | NCI-H460 95.9 µM | COLO 205 > 100 µM | UO-31 39.4 µM | EKVX 63 µM | T47D 52.4 µM | SK-MEL-5 36.1 µM | OVCAR-4 91 µM | LOX IMVI 57.3 µM | SF-268 > 100 µM | UACC-257 83.9 µM | HCC 2998 > 100 µM | DU-145 94.6 µM

CCN(CC)C(=S)SC(C(=O)Nc1nnc(-c2ccc(Cl)cc2)o1)c1ccccc1 (centres undefined)
inactive: RXF 393 14.9 µM | MDA-N 17.3 µM | HOP-92 16.6 µM | MOLT-4 3.48 µM | HCT-116 3.46 µM | MDA-MB-231 26 µM | Malme-3M 13.8 µM | NCI-H460 10.4 µM | COLO 205 4.06 µM | UO-31 17 µM | EKVX 8.47 µM | T47D 6.53 µM | SK-MEL-5 4.6 µM | OVCAR-4 3.08 µM | LOX IMVI 15.3 µM | SF-268 15.6 µM | UACC-257 31.6 µM | HCC 2998 3.41 µM | DU-145 20.1 µM

CC#CC(O)(C(=O)OC1CC2CCC(C1)N2C)C1CCCC1 (centres undefined)
inactive: RXF 393 > 100 µM | MDA-N > 100 µM | HOP-92 > 100 µM | MOLT-4 > 100 µM | HCT-116 > 100 µM | MDA-MB-231 > 100 µM | NCI-H460 > 100 µM | NCI-H226 > 100 µM | COLO 205 > 100 µM | UO-31 > 100 µM | EKVX > 100 µM | T47D > 100 µM | SK-MEL-5 > 100 µM | OVCAR-4 > 100 µM | LOX IMVI > 100 µM | SF-268 > 100 µM | UACC-257 > 100 µM | HCC 2998 > 100 µM | DU-145 > 100 µM

CCn1cc2c(=O)n3ncn(-c4ccc(Br)cc4)c3nc2n1
inactive: RXF 393 > 100 µM | MDA-N > 100 µM | MOLT-4 > 100 µM | HCT-116 > 100 µM | MDA-MB-231 40.6 µM | Malme-3M > 100 µM | NCI-H226 > 100 µM | COLO 205 > 100 µM | UO-31 > 100 µM | EKVX > 100 µM | T47D > 100 µM | SK-MEL-5 > 100 µM | OVCAR-4 > 100 µM | SF-268 > 100 µM | UACC-257 > 100 µM | HCC 2998 > 100 µM | DU-145 > 100 µM

COC1C(O)CC(OC2C(C)OC(Oc3cc(O)c4c(O)c5c(cc4c3)C[C@@H]([C@H](OC)C(=O)[C@@H](O)[C@@H](C)O)[C@H](OC3CC(OC4CC(OC6CC(C)(O)C(O)C(C)O6)C(O)C(C)O4)C(O)C(C)O3)C5=O)CC2OC(C)=O)OC1C (some centres undefined)
inactive: MDA-N 97.7 µM | MOLT-4 17.5 µM | HCT-116 59.2 µM | MDA-MB-231 91.6 µM | Malme-3M 3.47 µM | NCI-H460 31.6 µM | NCI-H226 29 µM | COLO 205 70.8 µM | UO-31 > 100 µM | EKVX > 100 µM | T47D 66.5 µM | SK-MEL-5 17.1 µM | OVCAR-4 > 100 µM | LOX IMVI 19.5 µM | SF-268 97.1 µM | HCC 2998 97.9 µM | DU-145 > 100 µM

COC(=O)C1(C(=O)OC)Cc2ccc(OC)cc2C2=C1C(=O)c1ccccc1C2=O
inactive: MDA-N 1.83 µM | HOP-92 2.69 µM | MOLT-4 1.53 µM | HCT-116 3.24 µM | MDA-MB-231 1.99 µM | Malme-3M 10.8 µM | NCI-H460 16.1 µM | NCI-H226 17.7 µM | COLO 205 20.3 µM | UO-31 3.69 µM | EKVX 4.46 µM | T47D 1.51 µM | SK-MEL-5 7.4 µM | OVCAR-4 1.77 µM | LOX IMVI 2.17 µM | SF-268 6.67 µM | UACC-257 2.48 µM | HCC 2998 19.5 µM | DU-145 16.5 µM
